# Measurements from patent US9212387B2, “Method for detection of genes targeted by microRNA” (National University Corporation Okayama University, priority 2010, dated 2015).
# {Biotin} = biotin label; {P} = phosphate
# How the values were obtained:
# [1] = tested on: target gene mRNAs of miR-183 in HEK293 cell extract; experiment: Pull down of target gene mRNAs of miR-183 with biotinylated miRNA from cell extract, RT-PCR assay; type: binding, human; details: for candidate genes whose mRNA was pulled down / RT-PCR bands: 14 kinds of target candidate genes of miR-183, HEK293 cell extract, streptavidin agarose beads; for target candidate genes of miR-183 (10 kinds) in pull-down complex: VIL2, PPP2CA, RREB1, BCL2L11, PDCD4, LATS2, RSU1, ING3, DNMT3A, BRMS1L, wash 400 mM KCl
# [2] = tested on: target candidate genes of let-7b (mRNA in cell extract); experiment: Pull down of target gene mRNAs of let-7b with biotinylated miRNA, RT-PCR assay; type: binding, human; details: wash 400 mM KCl; for E2F6 and SOCS4 in pulled down mRNA: Example 8; for E2F2, TUSC2 and SRSF8 in pulled down mRNA: Example 9
# Text: In this example, in the detection method for target genes of miRNA of Example 1, target genes were detected through the use of let-7b as biotinylated miRNA. In accordance with the biotinylated miRNA of 1) of Example 1, biotinylated let-7b in which the sense strand had its 5′ end and 3′ end modified by phosphorylation and biotin, respectively, and the guide strand had only its 5′ end modified by phosphorylation and biotinylated miR-183 as a negative control were synthesized (FASMAC Co., Ltd.). A pull-down complex was obtained by the same technique as in Example 1 through the use of streptavidin beads (Streptavidin Mutein Matrix: Roche), and washed five times with a wash solution containing 400 mM KCl in the same manner as in Example 5. After that, RNA purification and cDNA synthesis were performed from the complex binding to the beads. The resulting cDNA was subjected to an RT-PCR assay with primers specific for the E2F6 and SOCS4-2 genes as target candidate genes of let-7b.
# In this example, in the detection method for target genes of miRNA of Example 1, target genes were detected through the use of let-7b as biotinylated miRNA. In this example, the detection was performed by the same technique as in Example 8 except that biotinylated miR-29a was used as a negative control in place of biotinylated miR-183. Also in the case of the biotinylated miR-29a, one in which the sense strand had its 5′ end and 3′ end modified by phosphorylation and biotin, respectively, and the antisense strand had only its 5′ end modified by phosphorylation was produced (FASMAC Co., Ltd.). An RT-PCR assay was performed with primers specific for the PRDM2, E2F2, TUSC2, and SRSF8 genes as target candidate genes let-7b.
# [3] = tested on: target candidate genes of miR-19a (mRNA in cell extract); experiment: Pull down of target gene mRNAs of miR-19a with biotinylated miRNA, RT-PCR assay; type: binding, human
# Text: In this example, in the detection method for target genes of miRNA of Example 1, target genes were detected through the use of miR-19a as biotinylated miRNA. In accordance with the biotinylated miRNA of 1-1) of Example 1, biotinylated miR-19a in which the sense strand had its 5′ end and 3′ end modified by phosphorylation and biotin, respectively, and the antisense strand had only its 5′ end modified by phosphorylation was were synthesized (FASMAC Co., Ltd.). The synthesized biotinylated miR-19a (400 pmole) and biotin (B4501: Sigma, […]) as a negative control were subjected to the treatments of 1-2) and 1-3) of Example 1. A pull-down complex was obtained from the resulting complex by the same technique as in 1-4) through the use of streptavidin beads (Streptavidin Mutein Matrix: Roche), and washed five times with a wash solution containing 400 mM KCl in the same manner as in Example 5. After that, the precipitate was treated with a 5 mM biotin solution (containing 5 mM biotin and an RNase inhibitor in the wash solution containing 400 mM KCl) at 42° C. for 5 minutes, and centrifuged in the same manner, and the pull-down complex (biotinylated miR-19a) was liberated from the streptavidin beads. […]
# In this example, target genes were detected through the use of miR-19a as biotinylated miRNA in the detection method for target genes of miRNA of Example 1. […]
# AGO2 protein = target: T1, AGO2 protein (Homo sapiens, UniProt Q9UKV8); experiment: AGO2 protein in pull-down complex, Western blot; type: binding; details: HEK293 cell extract; streptavidin agarose beads 1 hour
# T1 construct: endogenous in cells; host or cells: HEK293 cell extract
# T1 sequence (Q9UKV8 whole entry): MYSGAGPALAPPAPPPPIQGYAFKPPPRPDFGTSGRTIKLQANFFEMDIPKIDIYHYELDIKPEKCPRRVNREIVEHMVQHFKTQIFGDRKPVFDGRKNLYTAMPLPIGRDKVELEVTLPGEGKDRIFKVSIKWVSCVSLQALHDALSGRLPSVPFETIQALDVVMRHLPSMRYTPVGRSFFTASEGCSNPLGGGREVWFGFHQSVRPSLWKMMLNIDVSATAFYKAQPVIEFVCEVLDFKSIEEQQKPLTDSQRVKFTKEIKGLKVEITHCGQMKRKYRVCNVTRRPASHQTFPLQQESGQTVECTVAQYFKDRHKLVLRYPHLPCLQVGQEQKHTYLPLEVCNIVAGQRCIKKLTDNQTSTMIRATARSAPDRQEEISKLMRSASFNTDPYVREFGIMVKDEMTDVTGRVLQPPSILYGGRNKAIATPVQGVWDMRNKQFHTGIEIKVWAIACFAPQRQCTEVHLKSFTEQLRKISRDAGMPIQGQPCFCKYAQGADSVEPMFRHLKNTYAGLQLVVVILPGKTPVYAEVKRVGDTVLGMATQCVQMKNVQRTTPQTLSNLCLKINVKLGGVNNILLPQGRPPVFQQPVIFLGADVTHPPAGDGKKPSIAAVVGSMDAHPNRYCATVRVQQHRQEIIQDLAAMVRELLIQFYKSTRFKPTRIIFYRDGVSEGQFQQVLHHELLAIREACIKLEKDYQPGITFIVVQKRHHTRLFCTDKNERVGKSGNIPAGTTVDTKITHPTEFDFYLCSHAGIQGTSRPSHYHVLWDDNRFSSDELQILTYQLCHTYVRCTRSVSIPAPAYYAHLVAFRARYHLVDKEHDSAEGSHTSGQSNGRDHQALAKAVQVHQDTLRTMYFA
# Procedure: Biotinylated miR-183 was produced by the same technique as that for the biotinylated miRNA of 1-1) of Example 1, and a cell extract of HEK293 cells was produced by the same technique as that for the cell extract of 1-2) of Example 1. Five tubes in each of which biotinylated double-stranded miR-183 ([…]) was added to 500 μl of the cell extract were produced, and were each subjected to a reaction at 4° C. for 30 minutes, and then at 30° C. for 60 minutes to provide a solution containing a biotinylated miRNA-target gene mRNA complex. To the solution containing the complex were added streptavidin agarose beads (Streptavidin Mutein Matrix, No. 03 708 152 001: Roche), and each tube was treated at 4° C. for 0 minutes, 2 minutes, 12 minutes, 24 minutes, or 1 hour. […]
# The presence or absence of the AGO2 protein in the pull-down complex of Example 2 was confirmed. […] By the same technique as in Experimental Example 1-2, the sample was electrophoresed with 8% SDS-polyacrylamide gel, proteins were then blotted onto a PVDF membrane and subjected to a reaction through the use of an anti-AGO2 antibody (Anti Human AGO2 monoclonal antibody; Wako Pure Chemical Industries, Ltd., No. 016-20861), an anti-mouse antibody, and a Vecstatin ABC-AP kit (Vector Laboratories), and a fluorescence image was acquired with an image analyzer (LAS-1000; FUJIFILM). […]
Substance,candidate genes whose mRNA was pulled down / RT-PCR bands [1],E2F6 and SOCS4 in pulled down mRNA [2],"E2F2, TUSC2 and SRSF8 in pulled down mRNA [2]",target candidate genes of miR-183 (10 kinds) in pull-down complex [1],other results
"biotinylated let-7b: Sense SEQ ID NO: 3, 5′-phosphorylated, 3′-biotinylated; antisense SEQ ID NO: 4",no band for any of the genes was detected,contained,contained,,
"biotinylated miR-19a: Sense SEQ ID NO: 7, 5′-phosphorylated, 3′-biotinylated; antisense SEQ ID NO: 8 (sense UGUGCAAAUCUAUGCAAAACUGA; antisense AGUUUUGCAUAGAUUUGCAUAAG; sense: RNA, 5' {P}, 3' {Biotin}, backbone not given here; antisense: RNA, 5' {P}, backbone not given here)",,,,,"target candidate genes (9 genes) of miR-19a in pulled down mRNA ([3]; JAZF1, TNF, SMAD4, HIP1, HIC1, LRP12, TNFRSF12A, TUSC2, SIVA1, Example 11): contained; target candidate genes (7 kinds) of miR-19a in 5 mM biotin extract or on remaining beads ([3]; SOX4, INHBB, TP531NP1, PTP4A1, TNFAIP3, HIC1, CNKSR2, Example 10): present"
"biotinylated miR-29a: Sense SEQ ID NO: 5, 5′-phosphorylated, 3′-biotinylated; antisense SEQ ID NO: 6; negative control (sense UAGCACCAUCUGAAAUCGGUUA; antisense ACCGAUUUCAGAUGGUGCCAAG; sense: RNA, 5' {P}, 3' {Biotin}, backbone not given here; antisense: RNA, 5' {P}, backbone not given here)",,,not contained,,
"biotinylated miR-183: Sense SEQ ID NO: 1, 5′-phosphorylated, 3′-biotinylated; antisense SEQ ID NO: 2 with a 1-base mismatch (sense UAUGGCACUGGUAGAAUUCACU; antisense UGAAUUCUACCAGUGCCACAAG; sense: RNA, 5' {P}, 3' {Biotin}, backbone not given here; antisense: RNA, 5' {P}, backbone not given here)",7,not contained,,contained,AGO2 protein (about 95 kDa) in pull-down complex (AGO2 protein): detected
"natural type miRNA: Original mature miRNA type: sense SEQ ID NO: 1, antisense SEQ ID NO: 9 (sense UAUGGCACUGGUAGAAUUCACU; antisense GUGAAUUACCGAAGGGCCAUAA; sense: RNA, 5' {P}, 3' {Biotin}, backbone not given here; antisense: RNA, 5' {P}, backbone not given here)",,,,contained,
